Each block holds one compound with its values, some of them ahead of it.
Legend:
NAMPT [1] = target: T1, NAMPT (Homo sapiens, UniProt P43490); assay: Time-Resolved Fluorescence Resonance Energy Transfer (TR-FRET) Binding Assay of NAMPT; settings: 6.8 nM NAMPT, 200 nM probe, equilibrated 3 hours, no substrates
Outline: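 IC50s come from four-parameter logistic fits of control-normalized Em520/Em495 TR-FRET ratios (Ex 337 nm) against compound concentration. Before reading, enzyme, probe, antibody and compound equilibrated for 3 h at room temperature.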

NAMPT [2] = target: T1, NAMPT; assay: TR-FRET Binding Assay of NAMPT with PRPP; settings: 2 nM NAMPT, 2 nM probe, 200 µM PRPP and 2.5 mM ATP, equilibrated 16 hours
Outline: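 Substrates present: PRPP at 200 µM and ATP at 2.5 mM, final, alongside 2 nM enzyme, 2 nM tracer and 1 nM terbium anti-His donor in 2% DMSO. A 16-hour equilibration preceded the time-resolved FRET read, allowing compounds to be enzymatically modified.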

PC3 cells = assay: NAMPT Cell Proliferation Assay (Cell Titer Glo); format: cell-based; settings: Homo sapiens, PC-3, 120 h, incubated 5 days, cell viability
Outline: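 Viability measured by Cell Titer Glo luminescence after 5-day exposure of attached PC3 cells to compound, dosed as 10-fold serial dilutions ([…]) in RPMI/10% FBS at 37 °C and 5% CO2. Percent inhibition fitted to sigmoidal dose-response curves for IC50.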

T1 sequence (P43490 whole entry): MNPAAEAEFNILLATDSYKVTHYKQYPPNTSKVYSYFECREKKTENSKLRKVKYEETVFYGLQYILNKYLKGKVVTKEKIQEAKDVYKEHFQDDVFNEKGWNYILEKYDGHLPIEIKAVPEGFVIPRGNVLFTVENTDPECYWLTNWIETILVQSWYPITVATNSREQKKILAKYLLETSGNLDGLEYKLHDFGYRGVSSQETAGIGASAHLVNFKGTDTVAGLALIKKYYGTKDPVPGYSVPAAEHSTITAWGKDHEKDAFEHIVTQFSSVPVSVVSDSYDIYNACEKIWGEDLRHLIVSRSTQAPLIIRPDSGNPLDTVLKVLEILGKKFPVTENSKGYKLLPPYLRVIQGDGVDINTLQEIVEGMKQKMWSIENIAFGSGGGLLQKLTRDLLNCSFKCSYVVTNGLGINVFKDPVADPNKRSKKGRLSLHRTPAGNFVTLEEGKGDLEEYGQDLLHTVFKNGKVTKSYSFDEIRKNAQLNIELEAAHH

Compound: O=C(Nc1ccc(C2CCN(C(=O)C3CCCC3)C2)cc1)N1CC(c2cccnc2)C1 (stereo not drawn) [Example 295, N-{4-[1-(cyclopentylcarbonyl)pyrrolidin-3-yl]phenyl}-3-(pyridin-3-yl)azetidine-1-carboxamide]
IC50 (NAMPT [1]): 50.7 nM | IC50 (NAMPT [2]): 0.272 nM | IC50 (PC3 cells): 66.5 nM

Compound: CC(C)C(C)C(=O)N1CCC(c2ccc(NC(=O)N3CC(c4cccnc4)C3)cc2)C1 (stereo not drawn) [Example 296, N-{4-[1-(2,3-dimethylbutanoyl)pyrrolidin-3-yl]phenyl}-3-(pyridin-3-yl)azetidine-1-carboxamide]
IC50 (NAMPT [1]): 26.4 nM | IC50 (NAMPT [2]): 0.243 nM | IC50 (PC3 cells): 19.8 nM

Compound: CCCCC(=O)N1CC[C@@H](Oc2ccc(NC(=O)N3CC(c4cccnc4)C3)cc2)C1 [Example 297, N-(4-{[(3R)-1-pentanoylpyrrolidin-3-yl]oxy}phenyl)-3-(pyridin-3-yl)azetidine-1-carboxamide]
IC50 (NAMPT [1]): 56.6 nM | IC50 (NAMPT [2]): 0.236 nM | IC50 (PC3 cells): 18.2 nM

Compound: O=C(CC1CC2CCC1C2)N1CCC(Oc2ccc(NC(=O)N3CC(c4cccnc4)C3)cc2)C1 (stereo not drawn) [Example 299, N-(4-{[1-(bicyclo[2.2.1]hept-2-ylacetyl)pyrrolidin-3-yl]oxy}phenyl)-3-(pyridin-3-yl)azetidine-1-carboxamide]
IC50 (NAMPT [1]): 64.9 nM | IC50 (NAMPT [2]): 0.451 nM | IC50 (PC3 cells): 14.6 nM

Compound: O=C(CC1CCCC1)N1CC[C@@H](Oc2ccc(NC(=O)N3CC(c4cccnc4)C3)cc2)C1 [Example 300, N-(4-{[(3R)-1-(cyclopentylacetyl)pyrrolidin-3-yl]oxy}phenyl)-3-(pyridin-3-yl)azetidine-1-carboxamide]
IC50 (NAMPT [1]): 52.6 nM | IC50 (NAMPT [2]): 0.341 nM | IC50 (PC3 cells): 17.1 nM

Compound: CC1CC1C(=O)N1CC[C@@H](Oc2ccc(NC(=O)N3CC(c4cccnc4)C3)cc2)C1 (stereo partly drawn) [Example 301, N-[4-({(3R)-1-[(2-methylcyclopropyl)carbonyl]pyrrolidin-3-yl}oxy)phenyl]-3-(pyridin-3-yl)azetidine-1-carboxamide]
IC50 (NAMPT [1]): 59 nM | IC50 (NAMPT [2]): 0.243 nM | IC50 (PC3 cells): 21.9 nM

Compound: O=C(CN1CCOCC1)N1CC[C@@H](Oc2ccc(NC(=O)N3CC(c4cccnc4)C3)cc2)C1 [Example 302, N-(4-{[(3R)-1-(morpholin-4-ylacetyl)pyrrolidin-3-yl]oxy}phenyl)-3-(pyridin-3-yl)azetidine-1-carboxamide]
IC50 (NAMPT [1]): 337 nM | IC50 (NAMPT [2]): 0.393 nM | IC50 (PC3 cells): 141 nM

Compound: O=C(Nc1ccc(O[C@@H]2CCN(C(=O)c3ccoc3)C2)cc1)N1CC(c2cccnc2)C1 [Example 303, N-(4-{[(3R)-1-(furan-3-ylcarbonyl)pyrrolidin-3-yl]oxy}phenyl)-3-(pyridin-3-yl)azetidine-1-carboxamide]
IC50 (NAMPT [1]): 40.5 nM | IC50 (NAMPT [2]): 0.595 nM | IC50 (PC3 cells): 13.5 nM

The next lines start with the values.

IC50 (NAMPT [1]): 44.3 nM | IC50 (NAMPT [2]): 0.2 nM | IC50 (PC3 cells): 60.9 nM
Compound: CC(C)CC(=O)N1CCC(c2ccc(NC(=O)N3CC(c4cccnc4)C3)cc2)C1 (stereo not drawn) [Example 294, N-{4-[1-(3-methylbutanoyl)pyrrolidin-3-yl]phenyl}-3-(pyridin-3-yl)azetidine-1-carboxamide]

IC50 (NAMPT [1]): 594 nM | IC50 (NAMPT [2]): 0.343 nM | IC50 (PC3 cells): 262 nM
Compound: O=C(CN1CCCC1)N1CC[C@@H](Oc2ccc(NC(=O)N3CC(c4cccnc4)C3)cc2)C1 [Example 304, 3-(pyridin-3-yl)-N-(4-{[(3R)-1-(pyrrolidin-1-ylacetyl)pyrrolidin-3-yl]oxy}phenyl)azetidine-1-carboxamide]

IC50 (NAMPT [1]): 435 nM | IC50 (NAMPT [2]): 0.211 nM | IC50 (PC3 cells): 1820 nM
Compound: O=C1CC[C@H](C(=O)N2CC[C@@H](Oc3ccc(NC(=O)N4CC(c5cccnc5)C4)cc3)C2)N1 [Example 305, N-(4-{[(3R)-1-(5-oxo-D-prolyl)pyrrolidin-3-yl]oxy}phenyl)-3-(pyridin-3-yl)azetidine-1-carboxamide]

IC50 (NAMPT [1]): 24.3 nM | IC50 (NAMPT [2]): 0.197 nM | IC50 (PC3 cells): 9.87 nM
Compound: O=C(Nc1ccc(O[C@@H]2CCN(C(=O)c3nccs3)C2)cc1)N1CC(c2cccnc2)C1 [Example 307, 3-(pyridin-3-yl)-N-(4-{[(3R)-1-(1,3-thiazol-2-ylcarbonyl)pyrrolidin-3-yl]oxy}phenyl)azetidine-1-carboxamide]

From patent publication US9296723B2, “NAMPT inhibitors” (AbbVie Inc., priority 2012, dated 2016)
